Data on 15 molecules can be found in patent publication US12600709B2, “Nonpeptide somatostatin type 5 receptor agonists and uses thereof” (Crinetics Pharmaceuticals, Inc., priority 2019, dated 2026).

In assay [1] the target is T1, human somatostatin receptor subtype 5 (Homo sapiens, UniProt P35346).
T1 construct: expressed in transfected cells
Put plainly: cAMP assay for SST5R (inhibition of cAMP in CHO-K1 cells). Type of assay: cell-based. Conditions: for EC50: inhibition of cAMP via human SST5 receptor, read-out: SST5 potency; for Fold selectivity for SST5 vs SST2: class symbols, SST5 receptor over SST2 receptor. In outline: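 CHO-K1 cells stably expressing human SSTR5 were treated 20 min at 37 °C with compounds plus 1.6 μM NKH477 in HBSS, 0.5 mM HEPES pH 7.4, 0.1% BSA, 0.2 mM IBMX. Lysate cAMP measured by HTRF against a standard curve; EC50 from cAMP-versus-concentration plots.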

The target in assay [2] is T2, human somatostatin receptor subtype 2 (Homo sapiens, UniProt P30874).
T2 construct: expressed in transfected cells
T2 sequence (P30874 whole entry): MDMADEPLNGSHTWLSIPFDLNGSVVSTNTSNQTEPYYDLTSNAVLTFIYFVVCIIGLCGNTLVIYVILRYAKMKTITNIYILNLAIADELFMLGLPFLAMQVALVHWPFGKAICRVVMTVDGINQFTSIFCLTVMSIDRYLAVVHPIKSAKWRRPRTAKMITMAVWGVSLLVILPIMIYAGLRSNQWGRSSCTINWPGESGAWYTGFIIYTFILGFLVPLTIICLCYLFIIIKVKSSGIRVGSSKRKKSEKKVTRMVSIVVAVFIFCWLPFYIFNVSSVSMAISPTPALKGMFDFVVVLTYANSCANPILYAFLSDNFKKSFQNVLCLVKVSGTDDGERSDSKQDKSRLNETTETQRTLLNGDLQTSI
Put plainly: cAMP assay for SST2R (inhibition of cAMP in CHO-K1 cells). Type of assay: cell-based. Conditions: Table B; inhibition of cAMP via human SST2 receptor; read-out: SST2 potency. In outline: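 CHO-K1 cells stably expressing human SSTR2, plated 4 days prior, treated 20 min at 37° C with 1.6 μM NKH477 plus compound dilutions in HBSS/HEPES pH 7.4/0.1% BSA/0.2 mM IBMX. Lysate cAMP measured by HTRF against standard curve; EC50 from concentration-response.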

The structures appear in SMILES notation. Where two headings read alike, the source gives them in different places.

T1 sequence (P35346 whole entry): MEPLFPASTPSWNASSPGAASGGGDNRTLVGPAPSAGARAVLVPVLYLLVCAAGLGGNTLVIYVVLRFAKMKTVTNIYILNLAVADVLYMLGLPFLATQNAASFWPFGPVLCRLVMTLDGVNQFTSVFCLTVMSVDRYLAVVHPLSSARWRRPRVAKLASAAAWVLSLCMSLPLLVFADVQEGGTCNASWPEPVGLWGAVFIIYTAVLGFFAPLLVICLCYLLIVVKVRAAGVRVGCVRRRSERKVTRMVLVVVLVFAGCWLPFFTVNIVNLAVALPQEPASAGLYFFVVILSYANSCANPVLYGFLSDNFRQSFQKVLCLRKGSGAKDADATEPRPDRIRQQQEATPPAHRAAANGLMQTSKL

With `COc1ncc(C(=O)N[C@@H](C)C(F)(F)F)c(N2CC[C@](C)(N)C2)c1-c1ccc(F)c(F)c1` [1-259, 4-[(3S)-3-amino-3-methylpyrrolidin-1-yl]-5-(3,4-difluorophenyl)-6-methoxy-N-[(2S)-1,1,1-trifluoropropan-2-yl]pyridine-3-carboxamide], the values for the EC50 in assay [1] (Table A), in assay [1] (Table B) and in assay [2] were less than 10 nM, less than 10 nM and 10 to 100 nM, respectively. Also, the “Fold selectivity for SST5 vs SST2” value in assay [1] (Table B) is “+++ (+++=>500)”.
As to `COc1ncc(C(=O)N[C@@H](C)C(F)(F)F)c(N2CC[C@](C)(N)C2)c1-c1ccc(Cl)c(F)c1` [1-260, 4-[(3S)-3-amino-3-methylpyrrolidin-1-yl]-5-(4-chloro-3-fluorophenyl)-6-methoxy-N-[(2S)-1,1,1-trifluoropropan-2-yl]pyridine-3-carboxamide], the EC50 in assay [1] (Table A) is less than 10 nM; in assay [1] (Table B), less than 10 nM; in assay [2] it was 100 to 1000 nM. Further, in assay [1] (Table B), the “Fold selectivity for SST5 vs SST2” value was “+++ (+++=>500)”.
Consider `COc1ncc(C(=O)N[C@@H](C)C(F)(F)F)c(N2CC[C@](C)(N)C2)c1-c1ccc(F)c(Cl)c1` [1-261, 4-[(3S)-3-amino-3-methylpyrrolidin-1-yl]-5-(3-chloro-4-fluorophenyl)-6-methoxy-N-[(2S)-1,1,1-trifluoropropan-2-yl]pyridine-3-carboxamide], for which the EC50 is less than 10 nM in assay [1] (Table A), less than 10 nM in assay [1] (Table B) and 100 to 1000 nM in assay [2]. Besides, the “Fold selectivity for SST5 vs SST2” value in assay [1] (Table B) is recorded as “+++ (+++=>500)”.
Turning to `COc1ncc(C(=O)N[C@@H](C)C2CC2)c(N2CC[C@](C)(N)C2)c1-c1ccc(F)c(F)c1` [1-262, 4-[(3S)-3-amino-3-methylpyrrolidin-1-yl]-N-[(1S)-1-cyclopropylethyl]-5-(3,4-difluorophenyl)-6-methoxypyridine-3-carboxamide], the EC50 in assay [1] (Table A) is less than 10 nM; in assay [1] (Table B) it was less than 10 nM; in assay [2], 100 to 1000 nM. The “Fold selectivity for SST5 vs SST2” value in assay [1] (Table B) is on record as “+++ (+++=>500)”.
In the case of `COc1ncc(C(=O)N[C@@H](C)C2CC2)c(N2CC[C@](C)(N)C2)c1-c1ccc(Cl)c(F)c1` [1-263, 4-[(3S)-3-amino-3-methylpyrrolidin-1-yl]-5-(4-chloro-3-fluorophenyl)-N-[(1S)-1-cyclopropylethyl]-6-methoxypyridine-3-carboxamide], the EC50 is less than 10 nM in assay [1] (Table A), less than 10 nM in assay [1] (Table B) and more than 1000 nM in assay [2]. The “Fold selectivity for SST5 vs SST2” value in assay [1] (Table B) is given as “+++ (+++=>500)”.
Take `C[C@H](NC(=O)c1cnc(OCCC(=O)O)c(-c2cc(F)cc(F)c2)c1N1CC[C@](C)(N)C1)C1CC1` [1-264, 3-({4-[(3S)-3-amino-3-methylpyrrolidin-1-yl]-5-{[(1S)-1-cyclopropylethyl]carbamoyl}-3-(3,5-difluorophenyl)pyridin-2-yl}oxy)propanoic acid]: the EC50 in assay [1] (Table A) is less than 10 nM; in assay [1] (Table B) it was less than 10 nM; in assay [2] it was more than 1000 nM. For the same molecule, in assay [1] (Table B), the “Fold selectivity for SST5 vs SST2” value is reported as “+++ (+++=>500)”.
For `C[C@H](NC(=O)c1cnc(OCCCC(=O)O)c(-c2cc(F)cc(F)c2)c1N1CC[C@](C)(N)C1)C1CC1` [1-265, 4-({4-[(3S)-3-amino-3-methylpyrrolidin-1-yl]-5-{[(1S)-1-cyclopropylethyl]carbamoyl}-3-(3,5-difluorophenyl)pyridin-2-yl}oxy)butanoic acid], the values for the EC50 in assay [1] (Table A), in assay [1] (Table B) and in assay [2] were less than 10 nM, less than 10 nM and more than 1000 nM, respectively. Also, the “Fold selectivity for SST5 vs SST2” value in assay [1] (Table B) is on record as “+++ (+++=>500)”.
`C[C@H](NC(=O)c1cnc(OCC2COC2)c(-c2cc(F)cc(F)c2)c1N1CC[C@](C)(N)C1)C1CC1` [1-266, 4-[(3S)-3-amino-3-methylpyrrolidin-1-yl]-N-[(1S)-1-cyclopropylethyl]-5-(3,5-difluorophenyl)-6-[(oxetan-3-yl)methoxy]pyridine-3-carboxamide]: the EC50 in assay [1] (Table A) is less than 10 nM; in assay [1] (Table B), less than 10 nM; in assay [2], more than 1000 nM. Moreover, the “Fold selectivity for SST5 vs SST2” value in assay [1] (Table B) was “+++ (+++=>500)”.
On to `C[C@H](NC(=O)c1cnc(OCc2ccccc2)c(-c2cc(F)cc(F)c2)c1N1CC[C@](C)(N)C1)C1CC1` [1-267, 4-[(3S)-3-amino-3-methylpyrrolidin-1-yl]-6-(benzyloxy)-N-[(1S)-1-cyclopropylethyl]-5-(3,5-difluorophenyl)pyridine-3-carboxamide], for which the values for the EC50 in assay [1] (Table A), in assay [1] (Table B) and in assay [2] were less than 10 nM, less than 10 nM and 100 to 1000 nM, respectively. In addition, the “Fold selectivity for SST5 vs SST2” value in assay [1] (Table B) is given as “+++ (+++=>500)”.
As to `COc1cc(C#N)cc(-c2c(C)ncc(C(=O)NC3CCC(F)(F)CC3)c2N2CC[C@](C)(N)C2)c1` [1-268, 4-[(3S)-3-amino-3-methylpyrrolidin-1-yl]-5-(3-cyano-5-methoxyphenyl)-N-(4,4-difluorocyclohexyl)-6-methylpyridine-3-carboxamide], the EC50 in assay [1] (Table A) is less than 10 nM; in assay [1] (Table B), less than 10 nM; in assay [2] it was more than 1000 nM. Moreover, in assay [1] (Table B), the “Fold selectivity for SST5 vs SST2” value is recorded as “+++ (+++=>500)”.
For `COc1cc(C#N)cc(-c2c(C)ncc(C(=O)NC3CC(F)(F)C3)c2N2CC[C@](C)(N)C2)c1` [1-269, 4-[(3S)-3-amino-3-methylpyrrolidin-1-yl]-5-(3-cyano-5-methoxyphenyl)-N-(3,3-difluorocyclobutyl)-6-methylpyridine-3-carboxamide], the values for the EC50 in assay [1] (Table A), in assay [1] (Table B) and in assay [2] were less than 10 nM, less than 10 nM and 100 to 1000 nM, respectively. Also, the “Fold selectivity for SST5 vs SST2” value in assay [1] (Table B) is recorded as “+++ (+++=>500)”.
As for `COc1cc(-c2c(C#N)ncc(C(=O)NCC(C)C)c2N2CC[C@](C)(N)C2)ccn1` [1-270, 4-[(3S)-3-amino-3-methylpyrrolidin-1-yl]-2-cyano-2′-methoxy-N-(2-methylpropyl)-[3,4′-bipyridine]-5-carboxamide], the values for the EC50 in assay [1] (Table A), in assay [1] (Table B) and in assay [2] were less than 10 nM, less than 10 nM and more than 1000 nM, respectively. Further, the “Fold selectivity for SST5 vs SST2” value in assay [1] (Table B) is given as “+++ (+++=>500)”.
Take `CCCCNC(=O)c1cnc(C#N)c(-c2ccnc(OC)c2)c1N1CC[C@](C)(N)C1` [1-271]: the EC50 in assay [1] (Table A) was less than 10 nM; in assay [1] (Table B) it was less than 10 nM; in assay [2], more than 1000 nM. Besides, the “Fold selectivity for SST5 vs SST2” value in assay [1] (Table B) is recorded as “+++ (+++=>500)”.
As for `Cc1ncc(C(=O)N[C@@H](C)C2CC2)c(N2CC[C@H](N)C2)c1-c1cc(F)cc(Cl)c1` [1-272, 4-[(3S)-3-aminopyrrolidin-1-yl]-5-(3-chloro-5-fluorophenyl)-N-[(1S)-1-cyclopropylethyl]-6-methylpyridine-3-carboxamide], the figures for the EC50 in assay [1] (Table A), in assay [1] (Table B) and in assay [2] were less than 10 nM, less than 10 nM and 100 to 1000 nM, respectively. For the same molecule, in assay [1] (Table B), the “Fold selectivity for SST5 vs SST2” value is “+++ (+++=>500)”.
Take `COc1ncc(C(=O)NC23CC(F)(C2)C3)c(N2CC[C@](C)(N)C2)c1-c1cc(F)cc(F)c1` [1-273, 4-[(3S)-3-amino-3-methylpyrrolidin-1-yl]-5-(3,5-difluorophenyl)-N-{3-fluorobicyclo[1.1.1]pentan-1-yl}-6-methoxypyridine-3-carboxamide]: the EC50 is less than 10 nM in assay [1] (Table A), less than 10 nM in assay [1] (Table B) and 100 to 1000 nM in assay [2]. Also, in assay [1] (Table B), the “Fold selectivity for SST5 vs SST2” value is “+++ (+++=>500)”.
